{"source": "patent US20240180805A1", "about": "“COMPOSITION FOR INHIBITING WRINKLE” (YUKI GOSEI KOGYO CO., LTD., priority 2022, published 2024)", "system": "hyaluronic acid synthase (HAS2)", "details": "β-alanine 10 mM added twice, 24 h apart; total 48 h; relative to β-actin (ΔΔCt); FIG. 1"}
{"smiles": "NCCC(=O)O", "note": "[β-alanine]", "values": [{"measurement": "mRNA of hyaluronic acid synthase in dermal fibroblasts", "value": "increased"}]}
